Test results as given in patent US20210163404A1, “NOVEL UREA COMPOUNDS AND BIOISOSTERES THEREOF AND THEIR USE FOR TREATING INFLAMMATION AND INFLAMMATION-RELATED PATHOLOGIES” (UNIVERSITÉ LAVAL, priority 2017, published 2021).

Legend:
[1] = tested on: IL-6; test: IL-6 expression in HaCaT cells stimulated with IL-17A and TNFα (ELISA); format: cell-based, human; settings: for Expression of IL-6, HaCaT: 10 μM solutions, HaCaT stimulated with IL-17A and TNFα, mean of five experiments in duplicate
From the text: The effect of compounds 3a-b, 4a-e, 5a-e and 6a-e on the expression of IL-6 was subsequently assessed using the HaCaT spontaneously transformed aneuploid immortal keratinocyte cell line, stimulated by the addition of IL-17A and TNFα in the culture medium (Table 1). Curcumin and ibuprofen were used as known IL-6 expression inhibitors. DMSO was used for solubilizing the drugs. […] Indeed, the inhibitory effect of these molecules was at least equivalent to that of curcumin [27] and ibuprofen, both recognized as anti-inflammatory drugs. The inhibitory effect of the substituted phenyl cycloalkylureas in accordance with an embodiment of the present disclosure on proinflammatory cytokines was also found at the mRNA level. Indeed, the mRNAs of the cytokines IL-6 and TNF-α as well as the mRNA of the chemokine IL-8 were lowered in TNF-α/IL-17A-stimulated HaCaT cells. Similar results were obtained in THP-1 cells stimulated with LPS where treatments with CHEU and 4e diminished the mRNA levels of the cytokines IL-1B, IL-6 and TNF-α in addition to the mRNA levels of the chemokine IL-8. It is surmised that the anti-inflammatory mechanism of action of the compounds of the present disclosure is likely mediated, at least in part, by modulating the phosphorylation state of the MAP kinase p38. […] Addition of a compound in accordance with an embodiment of the present disclosure, prior to stimulation with the aforementioned cytokines, decreases the level of p-p38 at 30-60 minutes post-stimulation. This diminution in p-p38 levels destabilizes the mRNAs of pro-inflammatory cytokines, non-limiting examples of which include TNF-α and IL-6. Moreover, it is surmised that the effect of the compounds of the present disclosure on p-p38 is potentially mediated by the activation of the phosphatase named DUSP1.
HaCaT cells (1×10^5) were suspended in DMEM culture media (500 μL) and incubated for 24 h in 24-well microtiter plates at 37° C. in a moisture-saturated atmosphere containing 5% CO2. Compounds were solubilized in DMSO and diluted in fresh DMEM. The compound (500 μL) was then added to the cell medium to obtain a final concentration of […] and the cells incubated over a period of 1 hour. In the meantime, IL-17α (200 ng/mL) and TNFα (20 ng/mL) (PeproTech, Rocky Hill, N.J.) were added to the drug solution in DMEM. Following the initial incubation of the cells, the culture medium was aspirated from each well and the IL-17α+ TNFα+ compound solution was added to each well for incubation (6 hours). The culture media was then removed and transferred to a clean tube (1.5 mL) at −80° C. until the ELISA test was performed. The presence of IL-6 in the cell media was determined using an IL-6 human Duoset ELISA kit (Fisher Scientific, Ottawa, On.) according to the manufacturer's instructions. Standards and samples were prepared and assessed in duplicate. Two separate replicates were performed for each sample. The absorbance was measured at 450 nm and 540 nm using a TECAN infinite M1000 plate reader.

[2] = tested on: HT-29 colon adenocarcinoma cells; test: Antiproliferative activity (NCI procedure, sulforhodamine B), HT-29; format: cell-based, human; settings: Homo sapiens, HT-29, 48 h; for GI50: Table 2; for IC50: unit inferred, tested 781 nM to 100 μM
Procedure, shortened: (§1)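 Cells seeded in DMEM, grown 24 h at 37 °C, then exposed 48 h to serial dilutions from 100 μM to 781 nM (DMSO <0.5%). TCA fixation, sulforhodamine B staining, absorbance at 530-568 nm; growth inhibition relative to plates fixed on treatment day. At least two experiments in triplicate.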

[3] = tested on: HaCaT keratinocyte cell line; test: Antiproliferative activity (NCI procedure, sulforhodamine B), HaCaT; format: cell-based, human; settings: Homo sapiens, HaCaT, 48 h; for GI50: Table 2; for IC50: unit inferred, tested 781 nM to 100 μM
Procedure, shortened: as §1

[4] = tested on: HDFn neonatal dermal fibroblast cell line; test: Antiproliferative activity (NCI procedure, sulforhodamine B), HDFn; format: cell-based, human; settings: Homo sapiens, Fibroblast, 48 h; for GI50: Table 2; for IC50: unit inferred, tested 781 nM to 100 μM
Procedure, shortened: as §1

[5] = tested on: A549 adenocarcinoma alveolar epithelial cancer cells; test: Antiproliferative activity (NCI procedure, sulforhodamine B), A549; format: cell-based, human; settings: Homo sapiens, A549, 48 h; for GI50: Table 2; for IC50: unit inferred, tested 781 nM to 100 μM
Procedure, shortened: as §1

[6] = tested on: HaCaT cells; test: Cell cycle analysis by flow cytometry; format: cell-based, human; settings: 10 μM, 24 h
Protocol: The effect of compounds 3a-b, 4e, 5b-c, 6a and 6e on cell cycle progression was subsequently assessed using a flow cytometer in accordance with established experimental protocols to evaluate any potential drug toxicity at specific phases of the cell cycle (Table 3).
HaCaT cells (2.5×10^5) were incubated with compounds 3a-b, 4e, 5b-c, 6a and 6e and curcumin (10 μM) over a period of 24 h. The cells were subsequently trypsinized, washed with PBS, resuspended in PBS (250 μL), fixed by the addition of ice-cold EtOH (750 μL) under agitation and stored at −20° C. until analysis. Prior to FACS analysis, cells were washed with PBS and resuspended in PBS (500 μL) containing 4′,6′-diamidino-2-phenylindole (DAPI) (2 μg/mL). The cell cycle was analyzed using an LSR II flow cytometer (BD Biosciences, Franklin Lakes, N.J.).

Compound | Expression of IL-6, HaCaT [1] [pg/mL] | GI50 [2] [µM] | IC50 ([2]; Table 6) [µM] | GI50 [3] [µM] | IC50 ([3]; Table 6) [µM] | GI50 [4] [µM] | IC50 ([4]; Table 6) [µM] | GI50 [5] [µM] | IC50 ([5]; Table 6) [µM] | melting point [°C] | other results
O=C(Nc1ccc(I)cc1)NC1CCCC1 [Compound 24, 1-Cyclopentyl-3-(4-iodophenyl)urea] | 65.1 ± 7.6 | 9.7 | 9.7 | > 100 | ≥ 100 | > 100 | ≥ 100 | 62 | 62 | 188 to 191 | 
O=C(NCC1CCC1)Nc1ccc(C2CCCCC2)cc1 [Compound 57, 1-(Cyclobutylmethyl)-3-(4-cyclohexylphenyl)urea] | 64.1 ± 5.4 | > 100 | ≥ 100 | > 100 | ≥ 100 | > 100 | ≥ 100 | > 100 | ≥ 100 | 172 to 173 | inhibitory effect on IL-6 expression in HaCaT cells ([1]; 10 μM, stimulated with IL-17A and TNFα, in words): significant inhibitory effect
CC(C)(C)c1cccc(NC(=O)NC2CCCC2)c1 [Compound 48, 1-(3-(t-Butyl)phenyl)-3-cyclopentylurea] | 74.6 ± 6.7 | 27 | 27 | > 100 | ≥ 100 | 84 | 84 | 34 | 34 | 152 to 154 | 
O=C(Nc1cccc(I)c1)NC1CCCC1 [Compound 40, 1-Cyclopentyl-3-(3-iodophenyl)urea] | 89.8 ± 9.0 | 30 | 30 | 49 | 49 | 23 | 23 | 30 | 30 | 142 to 143 | 
O=C(NCC1CCC1)Nc1cccc(I)c1 [Compound 39, 1-(Cyclobutylmethyl)-3-(3-iodophenyl)urea] | 90.2 ± 11.1 | 25 | 25 | 31 | 31 | 15 | 15 | 25 | 25 | 138 to 140 | 
O=C(Nc1cccc(I)c1)NC1CC1 [Compound 36, 1-Cyclopropyl-3-(3-iodophenyl)urea] | 57.3 ± 4.4 | > 100 | ≥ 100 | > 100 | ≥ 100 | 79 | 79 | 84 | 84 | 153 to 154 | 
CC(C)(C)c1cccc(NC(=O)NC2CC2)c1 [Compound 44] | 50.4 ± 2.6 | > 100 | ≥ 100 | > 100 | ≥ 100 | > 100 | ≥ 100 | > 100 | ≥ 100 | 169 to 171 | 
CCNC(=O)Nc1ccc(C(C)(C)C)cc1 [tBEU, reference compound] |  |  |  |  |  |  |  |  |  |  | Cell cycle progression G0-G1 [6]: 55.5; Cell cycle progression G2-M [6]: 19.1; Cell cycle progression S [6]: 25.3
O=C(Nc1ccc(I)cc1)NC1CC1 [Compound 20, 1-Cyclopropyl-3-(4-iodophenyl)urea] | 47.9 ± 4.5 | 82 | 82 | > 100 | ≥ 100 | 95 | 95 | > 100 | ≥ 100 |  | 
CC(C)(C)c1ccc(NC(=S)NCC2CCC2)cc1 [Compound 96] |  |  |  |  |  |  |  |  |  | 129 to 146 | IC50 ([2]; Table 8): 44 µM; IC50 ([3]; Table 8): > 100 µM; IC50 ([4]; Table 8): > 100 µM; IC50 ([5]; Table 8): 23.3 µM
CC(C)(C)c1cccc(NC(=S)NC2CC2)c1 [Compound 100] |  |  |  |  |  |  |  |  |  | 125 to 140 | IC50 ([2]; Table 8): 75.7 µM; IC50 ([3]; Table 8): > 100 µM; IC50 ([4]; Table 8): > 100 µM; IC50 ([5]; Table 8): 70 µM
CC(C)NC(=O)Nc1ccc(C(C)(C)C)cc1 [Compound 7] |  |  |  |  |  |  |  |  |  | 152 to 155 | IC50 ([2]; Table 5): 74.2 µM; IC50 ([3]; Table 5): > 100 µM; IC50 ([4]; Table 5): 57.4 µM; IC50 ([5]; Table 5): 83.2 µM
CCNC(=O)Nc1cccc(C2CCCCC2)c1 [Compound 66] |  |  | 31 |  | 37 |  | 31 |  | 58 | 141 to 144 | 
CC(C)NC(=O)Nc1cccc(C2CCCCC2)c1 [Compound 16] |  |  |  |  |  |  |  |  |  | 178 to 181 | IC50 ([2]; Table 5): > 100 µM; IC50 ([3]; Table 5): > 100 µM; IC50 ([4]; Table 5): 30.5 µM; IC50 ([5]; Table 5): > 100 µM
